Source: patent publication US6355799B1, “Substituted benzene compounds, process for their preparation, and herbicidal and defoliant compositions containing them” (ISK Americas Incorporated, priority 1997, dated 2002)

Tests used:
Format in all cases: in vivo
[1] = system: barnyardgrass (Echinochloa crus-galli, ECHCG); assay: Pre-emerge test, greenhouse herbicide activity screening; details: Echinochloa crus-galli, pre-emergence, 336 h, phytotoxicity rating 0-100, 14 days after application, read-out: Pre-emerge Herbicidal Activity ECHCG; for pest or weed control at 63 g/ha: 63 g ai/ha; for pest or weed control at 250 g/ha: 250 g ai/ha
In short: (§1)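 Applied at 15–1000 g ai/ha from acetone in 187 l/ha spray volume. Post-emergence applications included 0.25% v/v non-ionic surfactant and reached plants sown 8–21 days before. Pre-emergence applications were incorporated by surface watering. Efficacy or crop damage was rated on a 0–100 scale after 14 days.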

[2] = system: green foxtail (Setaria viridis, SETVI); assay: as above; details: Setaria viridis, pre-emergence, 336 h, phytotoxicity rating 0-100, 14 days after application, read-out: Pre-emerge Herbicidal Activity SETVI; for pest or weed control at 63 g/ha: 63 g ai/ha; for pest or weed control at 250 g/ha: 250 g ai/ha
In short: as §1

[3] = system: ivyleaf morningglory (Ipomoea hederacea, IPOHE); assay: as above; details: Ipomoea, pre-emergence, 336 h, phytotoxicity rating 0-100, 14 days after application, read-out: Pre-emerge Herbicidal Activity IPOHE; for pest or weed control at 63 g/ha: 63 g ai/ha; for pest or weed control at 250 g/ha: 250 g ai/ha
In short: as §1

[4] = system: johnsongrass (Sorghum halepense, SORHA); assay: as above; details: Sorghum halepense, pre-emergence, 336 h, phytotoxicity rating 0-100, 14 days after application, read-out: Pre-emerge Herbicidal Activity SORHA; for pest or weed control at 63 g/ha: 63 g ai/ha; for pest or weed control at 250 g/ha: 250 g ai/ha
In short: as §1

[5] = system: lambsquarters (Chenopodium album, CHEAL); assay: as above; details: Chenopodium album, pre-emergence, 336 h, phytotoxicity rating 0-100, 14 days after application, read-out: Pre-emerge Herbicidal Activity CHEAL; for pest or weed control at 63 g/ha: 63 g ai/ha; for pest or weed control at 250 g/ha: 250 g ai/ha
In short: as §1

[6] = system: large crabgrass (Digitaria sanguinalis, DIGSA); assay: as above; details: Digitaria sanguinalis, pre-emergence, 336 h, phytotoxicity rating 0-100, 14 days after application, read-out: Pre-emerge Herbicidal Activity DIGSA; for pest or weed control at 63 g/ha: 63 g ai/ha; for pest or weed control at 250 g/ha: 250 g ai/ha
In short: as §1

[7] = system: sicklepod (Cassia obtusifolia, CASOB); assay: as above; details: Senna obtusifolia, pre-emergence, 336 h, phytotoxicity rating 0-100, 14 days after application, read-out: Pre-emerge Herbicidal Activity CASOB; for pest or weed control at 63 g/ha: 63 g ai/ha; for pest or weed control at 250 g/ha: 250 g ai/ha
In short: as §1

[8] = system: velvetleaf (Abutilon theophrasti, ABUTH); assay: as above; details: Abutilon theophrasti, pre-emergence, 336 h, phytotoxicity rating 0-100, 14 days after application, read-out: Pre-emerge Herbicidal Activity ABUTH; for pest or weed control at 63 g/ha: 63 g ai/ha; for pest or weed control at 250 g/ha: 250 g ai/ha
In short: as §1

[9] = system: barnyardgrass (Echinochloa crus-galli, ECHCG); assay: Post-emerge test, greenhouse herbicide activity screening; details: post-emerge, 14 days after application, rating scale 0-100
In short: as §1

[10] = system: green foxtail (Setaria viridis, SETVI); assay: as above; details: post-emerge, 14 days after application, rating scale 0-100
In short: as §1

[11] = system: ivyleaf morningglory (Ipomoea hederacea, IPOHE); assay: as above; details: post-emerge, 14 days after application, rating scale 0-100
In short: as §1

[12] = system: johnsongrass (Sorghum halepense, SORHA); assay: as above; details: post-emerge, 14 days after application, rating scale 0-100
In short: as §1

[13] = system: lambsquarters (Chenopodium album, CHEAL); assay: as above; details: post-emerge, 14 days after application, rating scale 0-100
In short: as §1

[14] = system: sicklepod (Cassia obtusifolia, CASOB); assay: as above; details: post-emerge, 14 days after application, rating scale 0-100
In short: as §1

[15] = system: velvetleaf (Abutilon theophrasti, ABUTH); assay: as above; details: post-emerge, 14 days after application, rating scale 0-100
In short: as §1

SMILES	pest or weed control at 63 g/ha [1]	pest or weed control at 250 g/ha [1]	pest or weed control at 63 g/ha [2]	pest or weed control at 250 g/ha [2]	pest or weed control at 63 g/ha [3]	pest or weed control at 250 g/ha [3]	pest or weed control at 63 g/ha [4]	pest or weed control at 250 g/ha [4]	pest or weed control at 63 g/ha [5]	pest or weed control at 250 g/ha [5]	pest or weed control at 63 g/ha [6]	pest or weed control at 250 g/ha [6]	pest or weed control at 63 g/ha [7]	pest or weed control at 250 g/ha [7]	pest or weed control at 63 g/ha [8]	pest or weed control at 250 g/ha [8]	phytotoxicity rating ECHCG ([9]; 63 g ai/ha)	phytotoxicity rating ECHCG ([9]; 250 g ai/ha)	phytotoxicity rating SETVI ([10]; 63 g ai/ha)	phytotoxicity rating SETVI ([10]; 250 g ai/ha)	also measured
CNC(=O)N(C(=O)NC)c1c(OC)c(Cl)cc(F)c1-n1c(=O)cc(C(F)(F)F)n(C)c1=O [Compound 3-1, 3-[2-bis(methylaminocarbonyl)amino-4-chloro-6-fluoro-3-methoxyphenyl]-1-methyl-6-trifluoromethyl-2,4(1H, 3H)-pyrimidinedione]	0%	0%	0%	0%	0%	0%	0%	0%	20%	80%	0%	0%	0%	0%	0%	20%	0	0	0	0	phytotoxicity rating IPOHE ([11]; 63 g ai/ha): 0; phytotoxicity rating IPOHE ([11]; 250 g ai/ha): 30; phytotoxicity rating SORHA ([12]; 63 g ai/ha): 0; phytotoxicity rating SORHA ([12]; 250 g ai/ha): 0; phytotoxicity rating CHEAL ([13]; 63 g ai/ha): 0; phytotoxicity rating CHEAL ([13]; 250 g ai/ha): 60; phytotoxicity rating CASOB ([14]; 63 g ai/ha): 0; phytotoxicity rating CASOB ([14]; 250 g ai/ha): 0; phytotoxicity rating ABUTH ([15]; 63 g ai/ha): 0; phytotoxicity rating ABUTH ([15]; 250 g ai/ha): 0
COc1c(Cl)cc(F)c(-n2c(=O)cc(C(F)(F)F)n(C)c2=O)c1NC(N)=O [Compound 3-26, 3-(2-aminocarbonylamino-4-chloro-6-fluoro-3-methoxyphenyl)-1-methyl-6-trifluoromethyl-2,4(1H, 3H)-pyrimidinedione]	0%	30%	0%	85%	50%	100%	0%	50%	80%	90%	0%	80%	40%	90%	75%	100%	0	0	0	0	phytotoxicity rating IPOHE ([11]; 63 g ai/ha): 60; phytotoxicity rating IPOHE ([11]; 250 g ai/ha): 90; phytotoxicity rating SORHA ([12]; 63 g ai/ha): 0; phytotoxicity rating SORHA ([12]; 250 g ai/ha): 0; phytotoxicity rating CHEAL ([13]; 63 g ai/ha): 50; phytotoxicity rating CHEAL ([13]; 250 g ai/ha): 60; phytotoxicity rating CASOB ([14]; 63 g ai/ha): 20; phytotoxicity rating CASOB ([14]; 250 g ai/ha): 60; phytotoxicity rating ABUTH ([15]; 63 g ai/ha): 60; phytotoxicity rating ABUTH ([15]; 250 g ai/ha): 60
COC(=O)Nc1c(OC)c(Cl)cc(F)c1-n1c(=O)cc(C(F)(F)F)n(C)c1=O [Compound 4-1, 3-(4chloro-6-fluoro-3-methoxy-2-methoxycarbonylaminophenyl)-1-methyl-6-trifluoromethyl-2,4(1H, 3H)-pyrimidinedione]	10%	100%	100%	100%	100%	100%	60%	100%	100%	100%	60%	100%	95%	100%	100%	100%	0	0	0	10	phytotoxicity rating IPOHE ([11]; 63 g ai/ha): 100; phytotoxicity rating IPOHE ([11]; 250 g ai/ha): 100; phytotoxicity rating SORHA ([12]; 63 g ai/ha): 0; phytotoxicity rating SORHA ([12]; 250 g ai/ha): 20; phytotoxicity rating CHEAL ([13]; 63 g ai/ha): 60; phytotoxicity rating CHEAL ([13]; 250 g ai/ha): 98; phytotoxicity rating CASOB ([14]; 63 g ai/ha): 30; phytotoxicity rating CASOB ([14]; 250 g ai/ha): 50; phytotoxicity rating ABUTH ([15]; 63 g ai/ha): 100; phytotoxicity rating ABUTH ([15]; 250 g ai/ha): 100
